Measurements as given in publication PMC6644236, “Cytotoxicity of Crude Extract and Isolated Constituents of the Dichrostachys cinerea Bark towards Multifactorial Drug-Resistant Cancer Cells” (Evidence-based Complementary and Alternative Medicine : eCAM, 2019).
Read-outs that look alike come from different tables or passages of the source.

Tests used:
[1] = system: CCRF-CEM leukemia cells; experiment: Resazurin reduction cytotoxicity assay; assay type: cell-based; settings: 72 h incubation
Protocol: (§2) The Infinite M2000 Pro™ plate reader (Tecan, Crailsheim, Germany) with excitation wavelength of 544 nm and an emission wavelength of 590 nm was used to read the fluorescence after 72 h incubation. IC50 values earlier defined [13] were calculated from a calibration curve by linear regression using Microsoft Excel [24]. The degree of resistance (D.R.) was determined as the IC50 value of the resistant cell line versus that of its sensitive congeners; meanwhile, the selectivity index (S.I.) was the IC50 value in normal AML12 hepatocytes versus that in HepG2 hepatocarcinoma.

[2] = system: HepG2 hepatocarcinoma cells; experiment: Resazurin reduction cytotoxicity assay; assay type: cell-based; settings: Homo sapiens; HepG2, 72 h incubation
Protocol: as §2

[3] = system: HCT116 p53+/+ colon cancer cells; experiment: Resazurin reduction cytotoxicity assay; assay type: cell-based
[4] = system: caspase 9; experiment: Caspase-Glo 9 assay; assay type: cell-based; settings: CCRF-CEM, 6 h, optimal effects at 8.8 μM
Protocol: (§1) After 6 h treatment of CCRF-CEM cells with DCB and triterpenoid 1 for 6 h, caspases activities were evaluated with Caspase-Glo 3/7, 8, and 9 assay kits (Promega, Mannheim, Germany) similarly as previously reported.

[5] = system: MDA-MB-231-pcDNA breast cancer cells; experiment: Resazurin reduction cytotoxicity assay; assay type: cell-based; settings: 72 h incubation
[6] = system: MDA-MB-231-BCRP clone 23 cells; experiment: Resazurin reduction cytotoxicity assay; settings: for Degree of resistance: IC50 in MDA-MB-231-BCRP divided by IC50 in MDA-MB-231-pcDNA; for IC50: MDA-MB-231/BCRP, 72 h
Excerpt: (§3) Drug-sensitive and drug-resistant cancer cell lines of previously reported origin were used in this study. These included drug-sensitive CCRF-CEM leukemia cells and its multidrug-resistant P-glycoprotein-overexpressing subline CEM/ADR5000 cells [14–16], MDA-MB-231-pcDNA breast cancer cells and their resistant subline MDA-MB-231-BCRP clone 23 cells [17], HCT116 p53^+/+colon cancer cells and their knockout clone HCT116 p53^−/− cells, and U87.MG glioblastoma cells and their resistant subline U87.MGΔEGFR cells [18, 19]. Normal AML12 hepatocytes were used and compared with HepG2 hepatocarcinoma cells [18, 19].
as §2

[7] = system: CEM/ADR5000 leukemia cells; design: method as in PMID 29867487; settings: CEM/ADR5000 compared to CCRF-CEM; ref [34]; cited from earlier work
[8] = system: CCRF-CEM cells; experiment: ROS production, H2DCFH-DA; assay type: cell-based; settings: 24 h, 2 × IC50 (11.38 μg/mL crude extract; 17.60 μM compound 1)
Protocol: The measurement of ROS production using 2′,7′-dichlorodihydrofluorescein diacetate (H2DCFH-DA) (Sigma-Aldrich) was done in CCRF-CEM cells were treated with DCB, compound 1, a solvent control (DMSO), or a positive control, hydrogen peroxide (H2O2) for 24 h, in similar experimental conditions as documented earlier.

[9] = system: normal PBL peripheral blood lymphoblast; design: method as in PMID 11734332; settings: ref [36]; cited from earlier work
[10] = system: CCRF-CEM cells; experiment: Annexin V/PI staining, apoptosis by flow cytometry; settings: 24 h, 2 × IC50
Protocol: The experimental conditions were similar to those earlier reported (24 h incubation; humidified 5% CO2 atmosphere; 37°C) [13]. The BD Accuri C6 Flow Cytometer was then used to analyze apoptosis using fluorescein isothiocyanate (FITC)-conjugated annexin V/PI assay kit (eBioscience™ Annexin V; Invitrogen, San Diego, USA) similarly as reported earlier [13, 22, 23]; early apoptosis for cells stained with only annexin V; late apoptosis or in a necrotic stage for cells stained with both annexin V and propidium iodide [13, 25, 26].

[11] = system: CCRF-CEM cells; design: method as in PMID 29867487, PMID 11734332; settings: highest of the reported range, ref [34], [36]; cited from earlier work
[12] = system: caspase 8; experiment: Caspase-Glo 8 assay; assay type: cell-based; settings: CCRF-CEM, 6 h, optimal effects at 8.8 μM
Protocol: as §1

[13] = system: CEM/ADR5000 cells (multidrug-resistant P-glycoprotein-overexpressing subline); experiment: Resazurin reduction cytotoxicity assay; assay type: cell-based; settings: for IC50: CEM/ADR5000, 72 h incubation; for Degree of resistance: IC50 in CEM/ADR5000 divided by IC50 in CCRF-CEM
Excerpt: as §3, §2

[14] = system: U87.MG glioblastoma cells; experiment: Resazurin reduction cytotoxicity assay; assay type: cell-based; settings: Homo sapiens, U-87 MG; U87MG, 72 h incubation
[15] = system: 9 tested cancer cell lines; experiment: Resazurin reduction cytotoxicity assay, whole panel; assay type: cell-based; settings: for IC50: all tested cancer cell lines, 72 h incubation, read-out: IC50 values over the tested cancer cell lines
Excerpt: These included drug-sensitive CCRF-CEM leukemia cells and its multidrug-resistant P-glycoprotein-overexpressing subline CEM/ADR5000 cells [14–16], MDA-MB-231-pcDNA breast cancer cells and their resistant subline MDA-MB-231-BCRP clone 23 cells [17], HCT116 p53^+/+colon cancer cells and their knockout clone HCT116 p53^−/− cells, and U87.MG glioblastoma cells and their resistant subline U87.MGΔEGFR cells [18, 19]. Normal AML12 hepatocytes were used and compared with HepG2 hepatocarcinoma cells [18, 19].
as §2

[16] = system: Normal AML12 hepatocytes; experiment: Resazurin reduction cytotoxicity assay; assay type: cell-based; settings: for Selectivity index: IC50 in normal AML12 hepatocytes divided by IC50 in HepG2; for IC50: Mus musculus, normal AML12 hepatocytes, 72 h incubation
Excerpt: as §3, §2

[17] = system: U87.MGΔEGFR cells; experiment: Resazurin reduction cytotoxicity assay; assay type: cell-based; settings: for Degree of resistance: IC50 in U87MG.ΔEGFR divided by IC50 in U87MG; for IC50: U87MG.ΔEGFR, 72 h incubation
Excerpt: as §3, §2

[18] = system: HEK293 cells; design: method as in PMID 29867487, PMID 11734332; settings: lowest of the reported range, ref [34], [36]; cited from earlier work
[19] = system: HCT116 p53-/- cells; experiment: Resazurin reduction cytotoxicity assay; assay type: cell-based; settings: for IC50: Homo sapiens, HCT-116, HCT116(p53-/-), 72 h incubation; for Degree of resistance: IC50 in HCT116 (p53-/-) divided by IC50 in HCT116 (p53+/+)
Excerpt: as §3, §2

[20] = system: CCRF-CEM cells; experiment: Cell cycle analysis by flow cytometry (PI); assay type: cell-based; settings: 24 h
Protocol: Aliquots of 1×10^6 CCRF-CEM cells were treated with the studied samples (DCB and compound 1), the reference drug (doxorubicin), or the solvent control (DMSO) at various concentrations. […] The BD Accuri C6 Flow Cytometer (BD Biosciences, Heidelberg, Germany) was used to measure the propidium iodide (PI) fluorescence of individual nuclei. Assays were repeated at least three times and in triplicate.

[21] = system: caspases 3/7; experiment: Caspase-Glo 3/7 assay; assay type: cell-based; settings: CCRF-CEM, 6 h, optimal effects at 8.8 μM
Protocol: as §1

[22] = system: CCRF-CEM cells; experiment: Mitochondrial membrane potential (MMP), JC-1 staining; assay type: cell-based; settings: 24 h
Protocol: The mitochondrial membrane potential (MMP) of CCRF-CEM cells was analyzed after 24 h treatment with DCB, compound 1, or valinomycin (mitochondrial gradient dissipation substance or positive control). The 5,5′,6,6′-tetrachloro-1,1′,3,3′-tetraethylbenzimidazolyl carbocyanine iodide (JC-1; Biomol, Hamburg, Germany) staining was used to measure the MMP similarly as previously reported.

[23] = Homo sapiens, HCT-116, 72 h, 72 h incubation

## C=C(C)[C@@H]1CC[C@]2(C(=O)O)CC[C@]3(C)[C@H](CC[C@@H]4[C@@]5(C)CC[C@H](O)C(C)(C)[C@@H]5CC[C@]43C)[C@@H]12 [Compound 1, betulinic acid]
[1]
  IC50: 8.8 ± 0.35 µM
[1]; Homo sapiens, 72 h
  IC50: < 10 µM
[2]
  IC50: 44.2 ± 3.15 µM
[3]; [23]
  IC50: 31.5 ± 0.49 µM
[4]
  Increase in the activity of caspase 9: 2.37 fold
[5]
  IC50: 38.8 ± 0.94 µM
[6]
  Degree of resistance: 0.64
  IC50: 24.9 ± 1.2 µM
[7]
  Sensitivity of resistant cells compared to sensitive congener: hypersensitivity
[8]
  ROS production, percentage: 53.30%
[9]
  Cytotoxicity towards normal cells: low cytotoxicity
[10]
  Q9-LR early apoptotic cells annexin (+)/PI (-): 51.0%
  Q9-UL annexin V (-)/PI (+) cells (necrosis): 5.1%
[11]
  IC50: 29.4 µM
[12]
  Increase in the activity of caspase 8: 2.91 fold
[13]
  IC50: 7.65 ± 1.46 µM
  Degree of resistance: 0.87
[13]; Homo sapiens, ADR5000, 72 h
  IC50: < 10 µM
[14]
  IC50: 24.9 ± 0.33 µM
[15]; 72 h
  IC50: < 50 µM
[15]; all resistant cell lines compared to their sensitive counterparts
  Degree of resistance (D.R.), all resistant cell lines: below 1
[16]
  Selectivity index: > 2.13
  IC50: > 93.9 µM
[17]
  Degree of resistance: 0.56
  IC50: 13.9 ± 1.06 µM
[18]
  IC50: 15.1 µM
[19]
  IC50: 17.1 ± 0.7 µM
  Degree of resistance: 0.54
[20]; 1/4 × IC50
  Cell percentage Sub-G0/G1: 15.30%
[20]; 2 × IC50
  Cell percentage Sub-G0/G1: 48.40%
[21]
  Increase in the activity of caspases 3/7: 3.19 fold
[22]; 1/2 × IC50
  Q1 intact cells: 83.0%
  Q2 loss of MMP: 1.28%
  Q3 ruptured cell membrane: 0.291%
  Q4 ruptured cell membrane: 15.4%
[22]; 1/4 × IC50
  Q1 intact cells: 88.0%
  Q2 loss of MMP: 1.43%
  Q3 ruptured cell membrane: 0.057%
  Q4 ruptured cell membrane: 10.6%
[22]; 2 × IC50
  Q1 intact cells: 42.5%
  Q2 loss of MMP: 57.5%
  Q3 ruptured cell membrane: 0.00%
  Q4 ruptured cell membrane: 0.00%
[22]; IC50
  Q1 intact cells: 51.8%
  Q2 loss of MMP: 48.2%
  Q3 ruptured cell membrane: 0.00%
  Q4 ruptured cell membrane: 0.00%

## CCCCCCCCCCCCCCCCCCCCCCCCCC(=O)OCC(O)CO (stereo not shown) [Compound 2, glyceryl-1-hexacosanoate]
[1]; Homo sapiens
  IC50: > 100 µM
[2]
  IC50: > 100 µM
[3]; [23]
  IC50: > 100 µM
[5]
  IC50: > 100 µM
[6]
  IC50: > 100 µM
[13]; Homo sapiens
  IC50: > 100 µM
[14]
  IC50: > 100 µM
[15]; 72 h
  IC50: > 100 µM
[16]
  IC50: > 100 µM
[17]
  IC50: > 100 µM
[19]
  IC50: > 100 µM

## CC(C)[C@@H]1NC(=O)[C@H](C)OC(=O)[C@@H](C(C)C)NC(=O)[C@@H](C(C)C)OC(=O)[C@H](C(C)C)NC(=O)[C@H](C)OC(=O)[C@@H](C(C)C)NC(=O)[C@@H](C(C)C)OC(=O)[C@H](C(C)C)NC(=O)[C@H](C)OC(=O)[C@@H](C(C)C)NC(=O)[C@@H](C(C)C)OC1=O [Valinomycin, valinomycin, reference compound]
[22]; 10 μM
  Q1 intact cells: 54.1%
  Q2 loss of MMP: 45.9%
  Q3 ruptured cell membrane: 0.00%
  Q4 ruptured cell membrane: 0.00%

## O=c1cc(-c2ccc(O)cc2)oc2cc(O)ccc12 [Compound 3, 7-hydroxy-2-(4-hydroxyphenyl)-4H-chromen-4-one]
[1]; Homo sapiens
  IC50: 31.2 ± 0.98 µM
[2]
  IC50: 48.6 ± 7.09 µM
[3]; Homo sapiens, HCT-116, 72 h incubation
  IC50: > 100 µM
[5]
  IC50: 75.5 ± 5.16 µM
[6]
  Degree of resistance: 1.06
  IC50: 80 ± 1.61 µM
[13]; Homo sapiens
  IC50: 124 ± 20.2 µM
[13]
  Degree of resistance: 3.98
[14]
  IC50: 61.3 ± 5.87 µM
[15]
  IC50: > 10 µM
[16]
  IC50: > 100 µM
[17]
  Degree of resistance: 0.88
  IC50: 53.8 ± 6.1 µM
[19]
  IC50: 66.3 ± 5.67 µM
  Degree of resistance: < 0.66

## COc1cccc2c1C(=O)c1c(O)c3c(c(O)c1C2=O)C[C@@](O)(C(=O)CO)C[C@@H]3O[C@H]1C[C@H](N)[C@H](O)[C@H](C)O1 [Doxorubicin, doxorubicin, reference compound]
[1]; Homo sapiens
  IC50: 0.02 µM
[2]
  IC50: 4.56 ± 0.48 µM
[5]
  IC50: 0.13 ± 0.01 µM
[6]
  Degree of resistance: 6.14
  IC50: 0.79 ± 0.08 µM
[13]
  Degree of resistance: 6,683.00
[14]
  IC50: 0.26 ± 0.03 µM
[16]
  IC50: 52.9 ± 4.09 µM
[17]
  Degree of resistance: 3.79
  IC50: 0.98 ± 0.07 µM
[19]
  IC50: 1.78 ± 0.08 µM
  Degree of resistance: 3.73
[20]
  Cell cycle arrest (phase): between S and G2/M

## O=c1cc(-c2ccc(O)cc2)oc2ccc(O)cc12 [Compound 4, 6-hydroxy-2-(4-hydroxyphenyl)-4H-chromen-4-one]
[1]; Homo sapiens
  IC50: 18.9 ± 1.54 µM
[2]
  IC50: 34 ± 2.95 µM
[3]; 72 h incubation
  IC50: 48.9 ± 5.35 µM
[3]; [23]
  IC50: 88.9 µM
[5]
  IC50: 45.8 ± 4.76 µM
[6]
  Degree of resistance: 0.88
  IC50: 40.5 ± 3.9 µM
[13]; Homo sapiens
  IC50: 38.8 ± 2.13 µM
[13]
  Degree of resistance: 2.05
[14]
  IC50: 43.9 ± 8.19 µM
[16]
  Selectivity index: 1.59
  IC50: 53.9 ± 11.2 µM
[17]
  Degree of resistance: 1.02
  IC50: 44.6 ± 2.56 µM
[19]
  IC50: 48.6 ± 3.82 µM
  Degree of resistance: 1.00
